Test system: Sprague-Dawley (SD) rats
Test: oral glucose tolerance test (OGTT) in SD rats, reduction rate in blood glucose AUC relative to vehicle
Type: in vivo, rat
Conditions: male SD rats
Description: In this experiment, the compound represented by Formula 1 was prepared by the method described in Example 5 of Korean Patent Laid-Open Publication No. 10-2018-0069718 and dapagliflozin (HY-10450, MedChemExpress Co., Ltd.) was used. As a control group, a vehicle (0.5% carboxymethyl cellulose (CMC)) was used.
After at least 1 week of acclimatization of 8 to 10 week-old male Sprague-Dawley (SD) rats, an oral glucose tolerance test (OGTT) was performed using healthy rats.
After 16 hours of fasting, the rats were randomly divided into groups each having 5 rats similar in body weight and blood glucose level, followed by administration of the vehicle (0.5% carboxymethyl cellulose (CMC)), 0.3 mg/kg of the compound represented by Formula 1 alone, 0.1 mg/kg of dapagliflozin alone, or a combination of 0.3 mg/kg of the compound represented by Formula 1 and 0.1 mg/kg of dapagliflozin. One hour after administration of each of the drugs, glucose (2 g/kg) was intraperitoneally injected at a dose of 10 ml/kg. Blood glucose level was measured 60 minutes before glucose injection and 0, 15, 30, 60, and 120 minutes after glucose injection through puncture of the caudal vein using a blood glucose meter (Gluco DR. Almedicus. Co. Ltd.). Results were expressed by a reduction rate (%) in area under the blood glucose curve (AUC) relative to administration of the vehicle.
Results of measuring AUC from 0 to 60 min and from 0 to 120 min after glucose injection according to the above method are shown in Table 1 and FIG. 1.
An experiment was conducted in the same manner as in Example 1 except that 0.3 mg/kg of empagliflozin (HY-15409, MedChemExpress Co., Ltd.) was used instead of 0.1 mg/kg of dapagliflozin.

[1] = Example 1, 0.3 mg/kg alone, 1 h before glucose 2 g/kg
[2] = Example 2, Formula 1 0.3 mg/kg alone
[3] = Example 1, 0.1 mg/kg alone, 1 h before glucose 2 g/kg
[4] = Example 2, empagliflozin 0.3 mg/kg alone

CC#C[C@@H](CC(=O)O)c1ccc(O[C@@H]2CCc3c(-c4ccc(O[C@@H]5CCOC5)nc4)ccc(F)c32)cc1 [Compound of Formula 1, (S)-3-(4-(((R)-7-fluoro-4-(6-(((R)-tetrahydrofuran-3-yl)oxy)pyridin-3-yl)-2,3-dihydro-1H-inden-1-yl)oxy)phenyl)hex-4-ynoic acid]
reduction rate (%) in area under the blood glucose curve AUC (0-60 min) relative to vehicle [1]: 17.9%
reduction rate (%) in area under the blood glucose curve AUC (0-120 min) relative to vehicle [1]: 18.1%
reduction rate (%) in area under the blood glucose curve AUC (0-60 min) relative to vehicle [2]: 21.3%
reduction rate (%) in area under the blood glucose curve AUC (0-120 min) relative to vehicle [2]: 21.6%

CCOc1ccc(Cc2cc([C@@H]3O[C@H](CO)[C@@H](O)[C@H](O)[C@H]3O)ccc2Cl)cc1 [Dapagliflozin, dapagliflozin]
reduction rate (%) in area under the blood glucose curve AUC (0-60 min) relative to vehicle [3]: 9.8%
reduction rate (%) in area under the blood glucose curve AUC (0-120 min) relative to vehicle [3]: 6.7%

OC[C@H]1O[C@@H](c2ccc(Cl)c(Cc3ccc(O[C@H]4CCOC4)cc3)c2)[C@H](O)[C@@H](O)[C@@H]1O [Empagliflozin, empagliflozin]
reduction rate (%) in area under the blood glucose curve AUC (0-60 min) relative to vehicle [4]: 5.5%
reduction rate (%) in area under the blood glucose curve AUC (0-120 min) relative to vehicle [4]: 4.0%
